Common to all, as to test: NCI anticancer screen, dose series, 48 h
Experiment [1] has as its system MDA-MB-231.
The test system of experiment [2] is Malme-3M.
The test system of experiment [3] is SN12C.
In experiment [4] the test system is SW-620.
In experiment [5] the test system is SK-OV-3.
The subject of experiment [6] is A498.
Experiment [7] deals with T47D.
Experiment [8] relates to SF-268.
Experiment [9] has as its system UACC-62.
Experiment [10] relates to DU-145.
Experiment [11] concerns SF-295.
In experiment [12] the test system is SR.
For experiment [13], the system named is MDA-N.
For experiment [14], the system named is UACC-257.
The test system of experiment [15] is SK-MEL-28.
The subject of experiment [16] is COLO 205.
The subject of experiment [17] is HT-29.
Experiment [18] relates to 786-0.
Experiment [19] has as its system TK-10.
The subject of experiment [20] is MDA-MB-435.

SMILES strings stand for the structures.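 Results reflect a 48-hour exposure of cells in 96-well plates to compound at five concentrations. GI50 marks 50% less growth.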 Calls of active or inactive are those of the source. Rule as the data show it: active = GI50 up to about 1.1 µM and inactive = higher. Some results are limits rather than exact numbers.

Consider `O=C1OCC(CN2CCC(n3c(=O)[nH]c4ccccc43)CC2)=C1c1ccccc1`, for which the GI50 was 26.4 µM (inactive) in experiment [1]; 22.8 µM (inactive) in experiment [2]; 22 µM (inactive) in [3]; 34.9 µM (inactive) in experiment [4]; 37.2 µM (inactive) in experiment [5]; 23.5 µM (inactive) in experiment [6]. The GI50 in [7] is 6.03 µM (inactive); in [8], 28.1 µM (inactive); in [9], 12.6 µM (inactive); in experiment [10] it was 24.8 µM (inactive); in experiment [11], 26.4 µM (inactive); in experiment [12], 30.2 µM (inactive). Moreover, the GI50 in [13] is 26.2 µM (inactive); in [14], 23.4 µM (inactive); in [15], 23.4 µM (inactive); in experiment [16], 14.6 µM (inactive); in experiment [17], 19.7 µM (inactive); in [18] it was 33.4 µM (inactive). The GI50 in experiment [19] is 28.1 µM (inactive); in experiment [20], 25.3 µM (inactive).
Turning to `Sc1nn2c(COc3cccc(OCc4nnc5sc(S)nn45)c3)nnc2s1`, the GI50 in experiment [1] was > 100 µM (inactive); in experiment [2] it was > 100 µM (inactive); in experiment [3], > 100 µM (inactive); in [4] it was 37.5 µM (inactive); in [5], > 100 µM (inactive); in [6] it was > 100 µM (inactive). Moreover, the GI50 in experiment [7] is > 100 µM (inactive); in experiment [8], > 100 µM (inactive); in experiment [9], > 100 µM (inactive); in experiment [10] it was > 100 µM (inactive); in [11] it was > 100 µM (inactive); in experiment [12] it was 17.4 µM (inactive). The GI50 in experiment [13] is > 100 µM (inactive); in [14], > 100 µM (inactive); in experiment [15], > 100 µM (inactive); in [16], > 100 µM (inactive); in experiment [17], 62.5 µM (inactive); in experiment [18], 41.4 µM (inactive). Further, the GI50 in experiment [19] and in experiment [20] was > 100 µM (inactive) throughout.
As for `COC(=O)C(C)(NC(=O)C(CC(=O)OC(C)(C)C)NC(=O)OC(C)(C)C)c1ccccc1` (centres undefined), the GI50 in experiment [1] is > 100 µM (inactive); in experiment [2], 40 µM (inactive); in experiment [3] it was > 100 µM (inactive); in experiment [4], > 100 µM (inactive); in [5], > 100 µM (inactive); in [6], 54.3 µM (inactive). Also, the GI50 is 35.4 µM (inactive) in [7]; 7.19 µM (inactive) in experiment [8]; > 100 µM (inactive) in experiment [9]; > 100 µM (inactive) in experiment [10]; 81.8 µM (inactive) in experiment [11]; 73.5 µM (inactive) in experiment [12]. Besides, the GI50 in experiment [13], in experiment [14], in [15], in experiment [16], in [17] and in experiment [18] was > 100 µM (inactive) each time. Further, the GI50 in [19] and in [20] was > 100 µM (inactive) throughout.
With `c1ccc2c(c1)nnn2C1CCCCO1` (centres undefined), the GI50 in experiment [1], in experiment [2], in experiment [3], in experiment [4], in experiment [5] and in [6] was > 100 µM (inactive) throughout. The GI50 in [7], in experiment [8], in [9], in experiment [10], in experiment [11] and in experiment [12] was > 100 µM (inactive) in each case. The GI50 in experiment [13], in experiment [14], in [15], in experiment [16], in [17] and in experiment [18] was > 100 µM (inactive) in each case. Moreover, the GI50 in [19] and in [20] was > 100 µM (inactive) each time.
Regarding `COc1ccc(C(NCCNC(c2ccc(OC)c(OC)c2)c2cc3c(cc2O)OCO3)c2cc3c(cc2O)OCO3)cc1OC` (centres undefined), the GI50 in experiment [1] was 3.13 µM (inactive); in experiment [2], 4.5 µM (inactive); in experiment [3], 1.92 µM (inactive); in experiment [4] it was 1.29 µM (inactive); in experiment [5], 6.87 µM (inactive); in experiment [6], 7.45 µM (inactive). Also, the GI50 in experiment [7] was 3.37 µM (inactive); in experiment [8], 1.63 µM (inactive); in [9], 2.53 µM (inactive); in [10], 2.8 µM (inactive); in [11], 5.32 µM (inactive); in experiment [12] it was 0.682 µM (active). Further, the GI50 in experiment [13] was 1.64 µM (inactive); in experiment [14] it was 4.26 µM (inactive); in [15], 1.62 µM (inactive); in [16], 2.89 µM (inactive); in [17], 2.64 µM (inactive); in [18], 1.82 µM (inactive). Further, the GI50 is 4.04 µM (inactive) in experiment [19] and 1.87 µM (inactive) in experiment [20].
For the compound `CCOc1cc2c(cc1OC(C)=O)C(=O)CC[C@H]1C3CC[C@H](OC(C)=O)[C@@]3(C)CC[C@H]21` (some centres undefined), the GI50 in experiment [1], in experiment [2], in experiment [4], in experiment [5], in experiment [6] and in experiment [7] was > 100 µM (inactive) throughout. Besides, the GI50 in experiment [8], in experiment [9], in experiment [10], in experiment [11], in [12] and in experiment [13] was > 100 µM (inactive) in each case. Further, the GI50 in experiment [14], in experiment [15], in experiment [16], in experiment [17], in [18] and in experiment [19] was > 100 µM (inactive) throughout. The GI50 in experiment [20] is > 100 µM (inactive).
Take `CCC/C(=N\NC(=S)N1CCN(c2ccccn2)CC1)c1ccccn1`: the GI50 in experiment [1] was 0.0311 µM (active); in [2] it was 0.0205 µM (active); in [5] it was 0.437 µM (active); in experiment [6], 0.541 µM (active); in [7] it was 0.00248 µM (active); in experiment [8] it was 0.236 µM (active). Moreover, the GI50 is 0.0036 µM (active) in experiment [9]; 1.13 µM (inactive) in [10]; 0.00979 µM (active) in [11]; 0.00191 µM (active) in experiment [12]; 0.157 µM (active) in experiment [13]; 0.00387 µM (active) in [14]. Besides, the GI50 in [15] was 0.367 µM (active); in experiment [16], 0.00508 µM (active); in [17], 0.00137 µM (active); in [18] it was 0.0251 µM (active); in experiment [19], 0.335 µM (active); in experiment [20], 0.133 µM (active).
Turning to `CS(=N)(=O)CCC(N)P(=O)(O)O` (centres undefined), the GI50 in experiment [1], in experiment [2], in experiment [3], in experiment [4], in experiment [5] and in [6] was > 100 µM (inactive) in each case. For the same compound, the GI50 in [7], in experiment [8], in experiment [9], in experiment [10], in experiment [11] and in experiment [12] was > 100 µM (inactive) each time. In addition, the GI50 in experiment [13], in experiment [14], in experiment [15], in experiment [16], in experiment [17] and in [18] was > 100 µM (inactive) each time. Besides, the GI50 in experiment [19] and in experiment [20] was > 100 µM (inactive) each time.
On to `CCOc1cc(C2CC(c3ccc(NS(=O)(=O)c4cc([N+](=O)[O-])ccc4C)cc3)=NN2C(=O)c2ccccc2)ccc1O` (centres undefined), for which the GI50 is 17.5 µM (inactive) in experiment [1]; 13.8 µM (inactive) in experiment [2]; 22.3 µM (inactive) in experiment [3]; 32.8 µM (inactive) in [4]; 18.2 µM (inactive) in experiment [5]; 10.2 µM (inactive) in experiment [6]. The GI50 in experiment [7] is 12.1 µM (inactive); in experiment [8], 15.7 µM (inactive); in experiment [10], 32.7 µM (inactive); in [11] it was 20.8 µM (inactive); in [12], 23.8 µM (inactive); in experiment [13] it was 21.8 µM (inactive). Besides, the GI50 is 18.2 µM (inactive) in experiment [14]; 36.5 µM (inactive) in experiment [15]; 16.4 µM (inactive) in [16]; 26.5 µM (inactive) in experiment [17]; 23.1 µM (inactive) in experiment [18]; 14.2 µM (inactive) in [19]. The GI50 in experiment [20] is 28.1 µM (inactive).
Regarding `COc1ccc(CNNC(=O)c2cc[n+]([BH2-]C#N)cc2)cc1OC`, the GI50 in experiment [1], in experiment [2], in experiment [3], in [4], in experiment [6] and in experiment [7] was > 100 µM (inactive) throughout. In addition, the GI50 in [8], in [9], in experiment [10], in [11], in experiment [12] and in [13] was > 100 µM (inactive) throughout. For the same compound, the GI50 in experiment [14], in [15], in [16], in experiment [18], in experiment [19] and in experiment [20] was > 100 µM (inactive) each time.

These data come from ChEMBL document CHEMBL1201862, “PubChem BioAssay data set” (2004).
